Tests used:
[1] = Human microsome stability assay; assay type: in vitro ADME; settings: for Clearance of Human microsome: 1 μM test compound, 0.5 mg/mL liver microsomal protein, 37° C.
Procedure: The human microsomal stability assay is used for early assessment of metabolic stability of a test compound in human liver microsomes.
Human liver microsomes (Cat. NO.: 452117, Corning, USA; Cat. NO.:H2610, Xenotech, USA) were preincubated with test compound for 10 minutes at 37° C. in 100 mM potassium phosphate buffer, pH 7.4. The reactions were initiated by adding NADPH regenerating system.
The final incubation mixtures contained 1 μM test compound, 0.5 mg/mL liver microsomal protein, 1 mM MgCl2, 1 mM NADP, 1 unit/mL isocitric dehydrogenase and 6 mM isocitric acid in 100 mM potassium phosphate buffer, pH 7.4. After incubation times of 0, 3, 6, 9, 15 and 30 minutes at 37° C., 300 μL of cold acetonitrile (including internal standard) was added to 100 μL incubation mixture to terminate the reaction. Following precipitation and centrifugation, the amount of compound remaining in the samples were determined by LC-MS/MS. Controls of no NADPH regenerating system at zero and 30 minutes were also prepared and analyzed.

hERG K+ channel = target: T1, hERG K+ channel (Homo sapiens, UniProt Q12809); assay: hERG channel inhibition assay (patch-clamp, CHO-hERG cells); assay type: cell-based; settings: for IC50 / IC20: CHO-hERG cells, whole-cell patch-clamp; for IC20: human, CHO cells stably expressing hERG; for hERG IC20/TLR7 IC50 / hERG IC20/TLR8 IC50 / hERG IC20/TLR9 IC50: safety ratio
T1 construct: expressed in transfected cells; host or cells: CHO (Chinese hamster ovary)
T1 sequence (Q12809 whole entry): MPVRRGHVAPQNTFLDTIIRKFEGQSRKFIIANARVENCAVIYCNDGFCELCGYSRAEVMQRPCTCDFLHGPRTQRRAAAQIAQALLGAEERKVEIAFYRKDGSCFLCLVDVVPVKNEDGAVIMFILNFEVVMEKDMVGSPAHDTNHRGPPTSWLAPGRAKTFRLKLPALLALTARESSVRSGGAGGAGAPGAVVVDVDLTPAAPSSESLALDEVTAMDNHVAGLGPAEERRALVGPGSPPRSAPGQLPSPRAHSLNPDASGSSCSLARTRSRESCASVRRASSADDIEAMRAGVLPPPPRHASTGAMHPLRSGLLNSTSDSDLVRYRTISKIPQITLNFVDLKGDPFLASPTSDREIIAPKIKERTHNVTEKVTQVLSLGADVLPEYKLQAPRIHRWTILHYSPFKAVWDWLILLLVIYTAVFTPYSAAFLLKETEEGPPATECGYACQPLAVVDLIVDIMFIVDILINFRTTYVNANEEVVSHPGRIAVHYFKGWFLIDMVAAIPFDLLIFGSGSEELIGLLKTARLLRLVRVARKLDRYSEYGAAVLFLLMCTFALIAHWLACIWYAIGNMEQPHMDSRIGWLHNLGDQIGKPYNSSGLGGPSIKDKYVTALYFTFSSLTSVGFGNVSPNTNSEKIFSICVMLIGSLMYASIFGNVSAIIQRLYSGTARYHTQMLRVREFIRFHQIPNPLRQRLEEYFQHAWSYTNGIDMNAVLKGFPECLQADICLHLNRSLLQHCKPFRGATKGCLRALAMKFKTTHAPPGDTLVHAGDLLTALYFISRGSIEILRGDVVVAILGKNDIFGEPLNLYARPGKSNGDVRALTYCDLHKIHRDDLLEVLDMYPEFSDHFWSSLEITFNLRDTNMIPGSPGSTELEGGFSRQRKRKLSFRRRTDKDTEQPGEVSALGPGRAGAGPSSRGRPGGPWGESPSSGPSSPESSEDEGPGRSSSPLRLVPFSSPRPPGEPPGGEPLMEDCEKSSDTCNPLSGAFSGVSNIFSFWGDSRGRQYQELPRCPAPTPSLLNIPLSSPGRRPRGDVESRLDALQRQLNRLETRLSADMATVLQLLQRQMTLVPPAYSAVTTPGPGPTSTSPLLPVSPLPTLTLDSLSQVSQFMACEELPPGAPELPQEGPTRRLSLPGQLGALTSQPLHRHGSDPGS
Procedure: The hERG K^+ channels were cloned in humans and stably expressed in a CHO (Chinese hamster ovary) cell line. CHOhERG cells were used for patch-clamp (voltage-clamp, whole-cell) experiments. Cells were stimulated by a voltage pattern to activate hERG channels and conduct IKhERG Currents (rapid delayed outward rectifier potassium current of the hERG channel). After the cells were stabilized for a few minutes, the amplitude and kinetics of IKhERG were recorded at a stimulation frequency of 0.1 Hz (6 bpm). Thereafter, the test compound was added to the preparation at increasing concentrations. For each concentration, an attempt was made to reach a steady-state effect, usually, this was achieved within 3-10 min at which time the next highest concentration was applied. The amplitude and kinetics of IKhERG are recorded in each concentration of the drug which were compared to the control values (taken as 100%). (references: Redfe W S, Carlsson L, Davis A S, Lynch W G, MacKenzie I, Palethorpe S, Siegl P K, Strang I, Sullivan A T, Wallis R, Camm A J, Hammond T G. 2003; Relationships between preclinical cardiac electrophysiology, clinical QT interval prolongation and torsade de pointes for a broad range of drugs: evidence for a provisional safety margin in drug development. Cardiovasc. Res. 58:32-45, Sanguinetti M C, Tristani-Firouzi M. 2006; hERG potassium channels and cardiac arrhythmia. Nature 440:463-469, Webster R, Leishman D, Walker D. 2002; Towards a drug concentration effect relationship for QT prolongation and torsades de pointes. Curr. Opin. Drug Discov. Devel. 5:116-26).

TLR9 [2] = target: T2, TLR9 (Homo sapiens, UniProt Q9NR96); assay: Human PBMC cell-based assay; set-up: These cells express TLR7, TLR8, or TLR9, and therefore are natural responders to respective ligand stimulation; endogenous in cells; host or cells: human PBMC from healthy donor whole blood; settings: CpG ODN 2216 at 1 μM, read-out: hPBMC/TLR9 IC50
T2 sequence (Q9NR96 26-1032): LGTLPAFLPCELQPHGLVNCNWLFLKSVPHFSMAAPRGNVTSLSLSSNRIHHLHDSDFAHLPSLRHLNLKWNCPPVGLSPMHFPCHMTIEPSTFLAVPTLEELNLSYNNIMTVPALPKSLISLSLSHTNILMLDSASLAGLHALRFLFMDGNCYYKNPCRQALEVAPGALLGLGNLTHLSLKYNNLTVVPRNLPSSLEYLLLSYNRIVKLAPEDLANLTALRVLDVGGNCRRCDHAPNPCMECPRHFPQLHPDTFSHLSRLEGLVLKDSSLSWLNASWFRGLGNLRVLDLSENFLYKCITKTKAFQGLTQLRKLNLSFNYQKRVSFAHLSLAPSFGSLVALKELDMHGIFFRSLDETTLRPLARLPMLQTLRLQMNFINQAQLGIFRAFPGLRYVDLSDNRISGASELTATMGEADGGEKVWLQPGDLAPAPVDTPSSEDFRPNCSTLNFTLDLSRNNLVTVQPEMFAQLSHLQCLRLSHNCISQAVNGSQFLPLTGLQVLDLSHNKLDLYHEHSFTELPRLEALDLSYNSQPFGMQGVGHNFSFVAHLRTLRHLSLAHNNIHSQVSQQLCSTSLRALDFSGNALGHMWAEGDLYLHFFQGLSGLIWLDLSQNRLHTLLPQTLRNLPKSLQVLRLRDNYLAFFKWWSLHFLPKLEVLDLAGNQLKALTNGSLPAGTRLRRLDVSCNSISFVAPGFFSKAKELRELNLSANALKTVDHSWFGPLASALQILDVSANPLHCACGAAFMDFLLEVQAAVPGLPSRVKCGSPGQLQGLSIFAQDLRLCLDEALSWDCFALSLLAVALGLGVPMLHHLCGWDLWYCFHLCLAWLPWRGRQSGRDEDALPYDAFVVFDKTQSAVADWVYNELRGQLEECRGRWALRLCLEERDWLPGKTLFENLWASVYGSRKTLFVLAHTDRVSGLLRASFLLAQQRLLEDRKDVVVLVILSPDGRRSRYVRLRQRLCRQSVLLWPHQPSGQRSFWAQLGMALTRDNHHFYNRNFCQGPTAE
Description: Unlike the HEK reporter cell lines, human peripheral blood mononuclear cell (PBMC) represents primary human immune cells in blood mainly consisting of lymphocytes, monocytes, and dendritic cells. These cells express TLR7, TLR8, or TLR9, and therefore are natural responders to respective ligand stimulation. Upon activation of these TLRs, PBMCs secrete similar cytokines and chemokines in vitro and in vivo, and therefore the in vitro potency of a TLR7/8/9 antagonist in human PBMC is readily translatable to its pharmacodynamics response in vivo.
Human peripheral blood mononuclear cells (PBMC) were isolated from freshly-drawn lithium-heparinized (Lithium Heparin Plus blood Collection tube, BD Vacutainer®) healthy donor whole blood by density gradient (Ficoll-Paque™ PLUS, GE Healthcare life Sciences). Briefly, […] was diluted with 25 mL PBS (without Ca^2+, Mg^2+) in a 50 mL conical tube with porous barrier (Leucosep tube, Greiner bio-one), where 15.5 mL Ficoll-Paque was under laid after spinning. Tubes were centrifuged for 20 minutes at 800×g (1946 rpm) with the brake in the off position, and PBMC were collected from the buffy coat. Cells were then washed twice in PBS, and red blood cells were lysed by suspension in 2 mL (Red Blood Cell Lysis Buffer, Alfa Aesar) for 5-10 minutes at room temperature. After a final wash in PBS, PBMC were resuspended at a final concentration of 2×10^6 cells/mL in RPMI-1640 media with GlutaMAX™ (Gibco) supplemented with 10% Fetal Bovine Serum (Sigma) and plated at 150 μL/well (3×10^5 cells/well) in tissue culture treated round bottom 96-well plates (Corning Incorporated). Antagonist compounds (compounds of this invention) solubilized and serial diluted in 100% DMSO were added in duplicate to cells to yield a final concentration of 1% DMSO (v/v). PBMC were incubated with antagonist compounds for 30 minutes at 37° C., 5% CO2 before adding various TLR agonist reagents in 48 μL complete media per well as follows (final concentrations indicated): CpG ODN 2216 (InvivoGen) at 1 μM for TLR9, ORN 06/LyoVec (InvivoGen) at […] for TLR8 and R848 (InvivoGen) at 1 μg/mL for TLR7 and TLR8. PBMC were incubated overnight at 37° C. with 5% C02. Cell culture supernatants were collected, and levels of various human cytokines were assessed by Luminex assay (ProcartaPlex™ Multiplex Immunoassay, Invitrogen) or ELISA procedure according to the manufacturer's recommended protocol (eBioscience, ThermoFisher Scientific). Viability of the cells was also checked with Cell Viability Assay (CellTiter Glo® Luminescent Cell Viability Assay, Promega).

TLR9 [3] = target: T2, TLR9; assay: TLR9 activity of Novartis WO2018047081 compounds (background comparison)

Clearance of Human microsome [1]	IC50 (TLR9 [2])	human liver microsome stability (in words) [1]	TLR9 activity (in words) (TLR9 [3])	Structure (SMILES)	IC50 (hERG K+ channel)	IC20 (hERG K+ channel)	hERG IC20/TLR7 IC50 (hERG K+ channel)	hERG IC20/TLR8 IC50 (hERG K+ channel)	hERG IC20/TLR9 IC50 (hERG K+ channel)
0.978 L/h/kg	–	poor	much lower TLR9 activity	Cc1cc(N2CCc3c(c(C)nn3CC34CCC(NC(=O)[C@@H]5COCCN5)(CC3)CC4)C2)c2cnn(C)c2n1 [Example N8, reference compound]	–	–	–	–	–
1.09 L/h/kg	–	poor	best TLR9 activity	Cc1cc(N2CCc3c(c(C)nn3CC34CCC(N(C)C5CCC5)(CC3)CC4)C2)c2cnn(C)c2n1 [Example N79, reference compound]	–	–	–	–	–

Continued, molecule first:

Structure (SMILES)	Clearance of Human microsome [1]	IC50 (TLR9 [2])	human liver microsome stability (in words) [1]	TLR9 activity (in words) (TLR9 [3])	IC50 (hERG K+ channel)	IC20 (hERG K+ channel)	hERG IC20/TLR7 IC50 (hERG K+ channel)	hERG IC20/TLR8 IC50 (hERG K+ channel)	hERG IC20/TLR9 IC50 (hERG K+ channel)
C[C@@H]1CN(c2ccnc3c2cnn3C)CC[C@H]1c1ccc(N2CCNCC2)nc1 (relative stereo) [Example 19, 1-methyl-4-[trans-3-methyl-4-(6-piperazin-1-yl-3-pyridyl)-1-piperidyl]pyrazolo[3,4-b]pyridine]	0.372 L/h/kg	–	–	–	–	–	–	–	–
Cc1cc(N2CCC(c3ncc(N4CCNCC4)nc3C)CC2)c2cnn(C)c2n1 [Example 12, 1,6-dimethyl-4-[4-(3-methyl-5-piperazin-1-yl-pyrazin-2-yl)-1-piperidyl]pyrazolo[3,4-b]pyridine]	0.582 L/h/kg	–	–	–	> 20 µM	7 µM	205.9	233.3	15.5
Cc1cc(N2CC[C@@H](c3ncc(N4CCNC5(CC5)C4)cc3C)[C@H](C)C2)c2cnn(C)c2n1 [Example 30, 4-[(3S,4R)-4-[5-(4,7-diazaspiro[2.5]octan-7-yl)-3-methyl-2-pyridyl]-3-methyl-1-piperidyl]-1,6-dimethyl-pyrazolo[3,4-b]pyridine]	–	0.78 µM	–	–	> 10 µM	4.9 µM	544.4	350.0	11.6

Reference: US20240360126A1, “PYRAZOLO[3,4-B]PYRIDINE COMPOUNDS FOR THE TREATMENT OF AUTOIMMUNE DISEASE” (Hoffmann-La Roche Inc., priority 2021, published 2024)
